Values quoted from earlier work, collected in patent US6576223B2, “Insect repellent” (Karl Engelhard Fabrik Pharm Praparate GmbH & Co. KG., priority 1997, dated 2003).

Tests used:
[1] = concentrations of DEET exceeding 30%; monograph Diethyltoluamid, Bundesanzeiger No. 137

Row | Compound | side effects [1] | period of effectiveness (insects; DEET as alcohol solution applied to the skin, known agents) | repellent effect of the adjuvant itself (insects; adjuvant alone, EP 0 090 288)
1 | CCN(CC)C(=O)c1cccc(C)c1 [DEET, N,N-diethyl-m-toluamide] | blistering, ulceration, and necroses can occur | about 5 hours | –
2 | polyethylene glycol 400 [PEG-400] | – | – | no repellent effect
